{
  "source": "ChEMBL document CHEMBL4725373",
  "about": "“Introduction of Scaffold Nitrogen Atoms Renders Inhibitors of the Malarial l-Lactate Transporter, PfFNT, Effective against the Gly107Ser Resistance Mutation” (J Med Chem, 2020)",
  "key": {"[1]": {"assay": "(§1) Inhibition of Plasmodium falciparum FNT expressed in Saccharomyces cerevisiae W303-1A del-jen1 ady2-del (MATa, can1-100, ade2-loc, his3-11-15, leu2-3,-112, trp1-1-1, ura3-1, jen1::kanMX4, ady2::hphMX4) assessed as reduction in [1-14C]-L-lactate uptake incubated for 10 to 15 mins followed by [1-14C]-L-lactate addition and measured after 30 secs by liquid scintillation counting method"}, "[2]": {"assay": "as §1, with “FNT G107S mutant” for “FNT”, “after 120” for “after 30”"}, "[3]": {"assay": "as §1, with “20” for “10 to 15”, “addition” for “addition and measured after 30 secs”"}, "Plasmodium falciparum [4]": {"test_system": "Plasmodium falciparum", "assay": "Antiplasmodial activity against Plasmodium falciparum 3D7 assessed as reduction in parasitemia after 24 hrs by LSR II FACS method", "format": "functional, organism-based", "conditions": "3D7, 24 h"}, "[5]": {"assay": "as §1, with “FNT G107S mutant” for “FNT”, “20” for “10 to 15”, “addition” for “addition and measured after 30 secs”"}, "Plasmodium falciparum [6]": {"test_system": "Plasmodium falciparum", "assay": "Antiplasmodial activity against Plasmodium falciparum 3D7 assessed as reduction in parasitemia incubated for 48 hrs supplemented with fresh medium containing compound at 24 hrs by LSR II FACS method", "format": "functional, organism-based"}, "Plasmodium falciparum [7]": {"test_system": "Plasmodium falciparum", "assay": "Antiplasmodial activity against Plasmodium falciparum 3D7 assessed as reduction in parasite regrowth at 0.45 uM incubated for 14 days followed by compound washout and measured after 7 days", "format": "functional, organism-based", "conditions": "time 14.0 day"}, "Plasmodium falciparum [8]": {"test_system": "Plasmodium falciparum", "assay": "Antiplasmodial activity against Plasmodium falciparum 3D7 assessed as reduction in parasite regrowth at 0.75 uM incubated for 14 days followed by compound washout and measured after 30 days", "format": "functional, organism-based", "conditions": "time 14.0 day"}},
  "note": "The source made the active and inactive calls. The calls are words filed in the database; no cut-off is given here.",
  "data": [
    {"smiles": "O=C(/C=C(\\O)C(F)(F)C(F)(F)F)c1ccncc1", "values": [
      {"measurement": "IC50", "setting": "[1]", "value": 150, "unit": "nM"},
      {"measurement": "IC50", "setting": "[2]", "value": 22000, "unit": "nM"}
    ]},
    {"smiles": "COc1ccc(C(=O)/C=C(\\O)C(F)(F)C(F)(F)F)cc1", "values": [
      {"measurement": "IC50", "setting": "[3]", "value": 140, "unit": "nM"},
      {"measurement": "EC50", "setting": "Plasmodium falciparum [4]", "value": 3400, "unit": "nM"},
      {"measurement": "IC50", "setting": "[5]", "value": 2600, "unit": "nM"}
    ]},
    {"smiles": "Cc1ccc(C(=O)/C=C(\\O)C(F)(F)C(F)(F)F)cn1", "values": [
      {"measurement": "IC50", "setting": "[1]", "value": 150, "unit": "nM"},
      {"measurement": "IC50", "setting": "[2]", "value": 1700, "unit": "nM"}
    ]},
    {"smiles": "O=C(/C=C(\\O)C(F)(F)C(F)(F)F)c1cc2ccccc2o1", "values": [
      {"measurement": "IC50", "setting": "[1]", "value": 190, "unit": "nM"},
      {"measurement": "IC50", "setting": "[2]", "value": 17000, "unit": "nM"}
    ]},
    {"smiles": "COc1ccc(C(=O)/C=C(\\O)C(F)(F)C(F)(F)F)cn1", "values": [
      {"measurement": "IC50", "setting": "[1]", "value": 110, "unit": "nM"},
      {"measurement": "IC50", "setting": "[2]", "value": 260, "unit": "nM"},
      {"measurement": "EC50", "setting": "Plasmodium falciparum [6]", "value": 3880, "unit": "nM"}
    ]},
    {"smiles": "O=C(/C=C(\\O)C(F)(F)C(F)(F)F)c1cccnn1", "values": [
      {"measurement": "IC50", "setting": "[1]", "value": 860, "unit": "nM"},
      {"measurement": "IC50", "setting": "[2]", "value": 3800, "unit": "nM"}
    ]},
    {"smiles": "COc1ccc(CC(=O)/C=C(\\O)C(F)(F)C(F)(F)F)cc1", "values": [
      {"measurement": "IC50", "setting": "[1]", "value": 1900, "unit": "nM"},
      {"measurement": "IC50", "setting": "[2]", "value": 69000, "unit": "nM"}
    ]},
    {"smiles": "O=C(/C=C(\\O)C(F)(F)C(F)(F)F)c1ccc[nH]1", "values": [
      {"measurement": "IC50", "setting": "[1]", "value": 160, "unit": "nM"},
      {"measurement": "IC50", "setting": "[2]", "value": 12000, "unit": "nM"}
    ]},
    {"smiles": "Cn1ccc(C(=O)/C=C(\\O)C(F)(F)C(F)(F)F)c1", "values": [
      {"measurement": "IC50", "setting": "[1]", "value": 130, "unit": "nM"},
      {"measurement": "IC50", "setting": "[2]", "value": 14000, "unit": "nM"}
    ]},
    {"smiles": "Cc1[nH]nc(C(F)(F)F)c1Cc1sc2c(c1C(=O)N1C[C@](C)(O)CO1)c(=O)n(C)c(=O)n2C(C)C", "values": [
      {"measurement": "Activity", "setting": "Plasmodium falciparum [6]", "value": "inactive"}
    ]},
    {"smiles": "CC(C)(O)CC(=O)/C=C(\\O)C(F)(F)C(F)(F)F", "values": [
      {"measurement": "IC50", "setting": "[1]", "value": 1100, "unit": "nM"},
      {"measurement": "IC50", "setting": "[2]", "value": 490000, "unit": "nM"}
    ]},
    {"smiles": "O=C(/C=C(\\O)C(F)(F)C(F)(F)F)/C=C/c1ccccc1", "values": [
      {"measurement": "IC50", "setting": "[1]", "value": 290, "unit": "nM"},
      {"measurement": "IC50", "setting": "[2]", "value": 26000, "unit": "nM"}
    ]},
    {"smiles": "O=C(/C=C(\\O)C(F)(F)C(F)(F)F)c1ccc(Cl)cn1", "values": [
      {"measurement": "IC50", "setting": "[1]", "value": 230, "unit": "nM"},
      {"measurement": "IC50", "setting": "[2]", "value": 510, "unit": "nM"},
      {"measurement": "EC50", "setting": "Plasmodium falciparum [6]", "value": 14000, "unit": "nM"}
    ]},
    {"smiles": "O=C(/C=C(\\O)C(F)(F)CO)c1cccnc1", "values": [
      {"measurement": "IC50", "setting": "[1]", "value": 5500, "unit": "nM"}
    ]},
    {"smiles": "O=C(/C=C(\\O)C(F)(F)C(F)(F)F)c1cnc2ccccc2c1", "values": [
      {"measurement": "IC50", "setting": "[1]", "value": 240, "unit": "nM"},
      {"measurement": "IC50", "setting": "[2]", "value": 96000, "unit": "nM"}
    ]},
    {"smiles": "O=C(/C=C(\\O)C(F)(F)C(F)(F)F)c1cnccn1", "values": [
      {"measurement": "IC50", "setting": "[1]", "value": 460, "unit": "nM"},
      {"measurement": "IC50", "setting": "[2]", "value": 1200, "unit": "nM"}
    ]},
    {"smiles": "CCCCC(F)(F)/C(O)=C/C(=O)c1cccnc1", "values": [
      {"measurement": "IC50", "setting": "[1]", "value": 360, "unit": "nM"},
      {"measurement": "IC50", "setting": "[2]", "value": 24000, "unit": "nM"},
      {"measurement": "EC50", "setting": "Plasmodium falciparum [6]", "value": 20100, "unit": "nM"}
    ]},
    {"smiles": "COc1ccc(C(=O)/C=C(\\O)C(F)(F)C(F)(F)F)c(O)c1", "values": [
      {"measurement": "IC50", "setting": "[3]", "value": 170, "unit": "nM"},
      {"measurement": "EC50", "setting": "Plasmodium falciparum [4]", "value": 140, "unit": "nM"},
      {"measurement": "IC50", "setting": "[5]", "value": 20000, "unit": "nM"},
      {"measurement": "Activity", "setting": "Plasmodium falciparum [7]", "value": "inactive"}
    ]},
    {"smiles": "COc1ccc(CCC(=O)/C=C(\\O)C(F)(F)C(F)(F)F)cc1", "values": [
      {"measurement": "IC50", "setting": "[1]", "value": 190, "unit": "nM"},
      {"measurement": "IC50", "setting": "[2]", "value": 6300, "unit": "nM"}
    ]},
    {"smiles": "O=C(/C=C(\\O)C(F)(F)C(F)(F)F)c1cc[nH]c1", "values": [
      {"measurement": "IC50", "setting": "[1]", "value": 200, "unit": "nM"},
      {"measurement": "IC50", "setting": "[2]", "value": 13000, "unit": "nM"}
    ]},
    {"smiles": "O=C(/C=C(\\O)C(F)(F)C(F)(F)F)Nc1ccccc1", "values": [
      {"measurement": "IC50", "setting": "[1]", "value": 18000, "unit": "nM"},
      {"measurement": "IC50", "setting": "[2]", "value": 378000, "unit": "nM"}
    ]},
    {"smiles": "O=C(/C=C(\\O)C(F)(F)C(F)(F)F)c1cccnc1", "values": [
      {"measurement": "IC50", "setting": "[1]", "value": 110, "unit": "nM"},
      {"measurement": "IC50", "setting": "[2]", "value": 630, "unit": "nM"},
      {"measurement": "EC50", "setting": "Plasmodium falciparum [6]", "value": 240, "unit": "nM"},
      {"measurement": "Activity", "setting": "Plasmodium falciparum [8]", "value": "Active"}
    ]},
    {"smiles": "O=C(/C=C(\\O)C(F)(F)C(F)(F)F)c1ccccn1", "values": [
      {"measurement": "IC50", "setting": "[1]", "value": 150, "unit": "nM"},
      {"measurement": "IC50", "setting": "[2]", "value": 580, "unit": "nM"},
      {"measurement": "EC50", "setting": "Plasmodium falciparum [6]", "value": 13500, "unit": "nM"}
    ]}
  ]
}
